Values belong to the compound of their own block, whether it stands above or below them.
Assays:
Lactoylglutathione lyase [1] = target: T1, Lactoylglutathione lyase (Homo sapiens, UniProt Q04760); assay: Competitive inhibition of human Glyoxalase-1 using GSH and MGO as substrate
Lactoylglutathione lyase [2] = target: T1, Lactoylglutathione lyase; assay: Inhibition of Glyoxalase-1 (unknown origin)
Lactoylglutathione lyase [3] = target: Lactoylglutathione lyase (Mus musculus, UniProt Q9CPU0); assay: Competitive inhibition of recombinant mouse His-tagged Glyoxalase-1 using GSH and MGO as substrate by spectrophotometric method
Lactoylglutathione lyase [4] = target: T1, Lactoylglutathione lyase; assay: Inhibition of human Glyoxalase-1
Lactoylglutathione lyase [5] = target: T1, Lactoylglutathione lyase; assay: Competitive inhibition of human Glyoxalase-1 using GSH and MGO as substrate by Michaelis-Menten analysis

T1 sequence (Q04760 whole entry): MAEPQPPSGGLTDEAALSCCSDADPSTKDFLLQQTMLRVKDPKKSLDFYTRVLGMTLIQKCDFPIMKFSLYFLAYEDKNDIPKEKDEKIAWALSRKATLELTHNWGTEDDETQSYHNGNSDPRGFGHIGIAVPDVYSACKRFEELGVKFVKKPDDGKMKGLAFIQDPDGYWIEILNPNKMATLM
Sequence of Lactoylglutathione lyase (Mus musculus, UniProt Q9CPU0) (Q9CPU0 whole entry): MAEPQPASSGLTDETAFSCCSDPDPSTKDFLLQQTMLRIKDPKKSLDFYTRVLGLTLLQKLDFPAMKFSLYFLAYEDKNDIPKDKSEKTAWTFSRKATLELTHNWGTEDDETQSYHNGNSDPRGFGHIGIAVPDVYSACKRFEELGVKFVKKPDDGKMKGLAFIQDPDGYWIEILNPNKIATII

Ki (Lactoylglutathione lyase [1]): 7 nM
SMILES: C#Cc1ccc(N(O)C(=O)SC[C@H](NC(=O)CC[C@H](N)C(=O)O)C(=O)NCC(=O)O)cc1

IC50 (Lactoylglutathione lyase [2]): 90000 nM
SMILES: NS(=O)(=O)c1ccc2c(c1)S(=O)(=O)NC2=O

Ki (Lactoylglutathione lyase [3]): 230 nM
SMILES: COC(=O)c1c(C)cc(Oc2cc(C)cc(O)c2O)cc1O

Ki (Lactoylglutathione lyase [3]): 150 nM
SMILES: Cc1cc(O)c(O)c(Oc2cc(C)c(C(=O)O)c(O)c2)c1

Ki (Lactoylglutathione lyase [1]): 1 nM
SMILES: C#Cc1cccc(N(O)C(=O)CC[C@H](NC(=O)CC[C@H](N)C(=O)O)C(=O)NCC(=O)O)c1

Ki (Lactoylglutathione lyase [4]): 10 nM
SMILES: N[C@@H](CCC(=O)N[C@@H](CSC(=O)N(O)c1ccc(I)cc1)C(=O)NCC(=O)O)C(=O)O

Ki (Lactoylglutathione lyase [1]): 19 nM
SMILES: C#Cc1cccc(N(O)C(=O)SC[C@H](NC(=O)CC[C@H](N)C(=O)O)C(=O)NCC(=O)O)c1

Ki (Lactoylglutathione lyase [5]): 0.96 nM
SMILES: O=C(O)CNC(=O)[C@H](CSC(=O)N(O)c1ccc(Cl)cc1)NC(=O)CC[C@H](NC(=O)CCNC(=O)CCNC(=O)CCNC(=O)CCNC(=O)CCNC(=O)CCNC(=O)CCCCCCC(=O)NCCC(=O)NCCC(=O)NCCC(=O)NCCC(=O)NCCC(=O)NCCC(=O)N[C@@H](CCC(=O)N[C@@H](CSC(=O)N(O)c1ccc(Cl)cc1)C(=O)NCC(=O)O)C(=O)O)C(=O)O
